# System: preferentially upregulated genes in LV, SP, LN
# Test: Z-score-based differential gene expression analysis (adjuvant group- or adjuvant-associated genes, 40 module mapping, TargetMine annotation)
# Type: in vivo, C57BL/6 mice
# Conditions: ID, LV
# Outline: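 Gene groups for each organ were built from combined z-score cutoffs across adjuvants, ranging from z>1 to z>3. Scores came from fold changes standardized per gene over the whole organ data set, with the three replicate z-scores added per adjuvant; sums above 3 marked preferential expression.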
structure (smiles),measurement,setting,value
"CCOCc1nc2c(N)nc3ccccc3c2n1CC(C)(C)O [R848, 4-amino-2-(ethoxymethyl)-a,a-dimethyl-1H-imidazo[4,5-c]quinoline-1-ethanol]","Adar 1425405_a_at (Group G1, Modules 20)",sample x1,1.63
same,"Adar 1434268_at (Group G1, Modules 20)",sample x1,2.77
same,"Ddx58 1436562_at (Group G1, Modules 20)",sample x1,2.64
same,"Ddx58 1456890_at (Group G1, Modules 20)",sample x1,2.42
same,"Eif2ak2 1422005_at (Group G1, Modules 20)",sample x1,2.43
same,"G3bp2 1421323_a_at (Group G1, Modules 20)",sample x1,2.13
same,"Gm9706///Isg15 1431591_s_at (Group G1, Modules 20)",sample x1,2.55
same,"H2-T10///H2-T22///H2-T9 1449875_s_at (Group G1, Modules 20)",sample x1,2.05
same,"Ifih1 1426276_at (Group G1, Modules 20)",sample x1,3.25
same,"Ifit1 1450783_at (Group G1, Modules 20)",sample x1,1.54
same,"Ifit3 1449025_at (Group G1, Modules 20)",sample x1,2.19
same,"Irf7 1417244_a_at (Group G1, Modules 20)",sample x1,2.27
same,"Irgm1 1418825_at (Group G1, Modules 20)",sample x1,2.87
same,"Mndal 1426906_at (Group G1, Modules 20)",sample x1,1.65
same,"Pml 1448757_at (Group G1, Modules 20)",sample x1,1.77
same,"Pml 1456103_at (Group G1, Modules 20)",sample x1,3.66
same,"Rnf213 1455500_at (Group G1, Modules 20)",sample x1,1.29
same,"Rsad2 1436058_at (Group G1, Modules 20)",sample x1,1.97
same,"Shisa5 1423986_a_at (Group G1, Modules 20)",sample x1,2.93
same,"Shisa5 1437503_a_at (Group G1, Modules 20)",sample x1,3.09
same,"Stat1 1450033_a_at (Group G1, Modules 20)",sample x1,1.4
same,"Stat1 1450034_at (Group G1, Modules 20)",sample x1,2.37
same,"Tdrd7 1426716_at (Group G1, Modules 20)",sample x1,1.79
same,"Tor1aip2 1418115_s_at (Group G1, Modules 20)",sample x1,1.53
same,"Tor1aip2 1418116_at (Group G1, Modules 20)",sample x1,1.45
same,"Tor1aip2 1435526_at (Group G1, Modules 20)",sample x1,3.12
same,"Trim12a 1437432_a_at (Group G1, Modules 20)",sample x1,2.13
same,"Uba7 1426970_a_at (Group G1, Modules 20)",sample x1,2.64
same,"Adar 1425405_a_at (Group G1, Modules 20)",sample x2,1.17
same,"Adar 1434268_at (Group G1, Modules 20)",sample x2,1.8
same,"Ddx58 1436562_at (Group G1, Modules 20)",sample x2,2.33
same,"Ddx58 1456890_at (Group G1, Modules 20)",sample x2,1.34
same,"Eif2ak2 1422005_at (Group G1, Modules 20)",sample x2,1.56
same,"G3bp2 1421323_a_at (Group G1, Modules 20)",sample x2,1.21
same,"Gm9706///Isg15 1431591_s_at (Group G1, Modules 20)",sample x2,2.1
same,"H2-T10///H2-T22///H2-T9 1449875_s_at (Group G1, Modules 20)",sample x2,2.01
same,"Ifih1 1426276_at (Group G1, Modules 20)",sample x2,2.46
same,"Ifit1 1450783_at (Group G1, Modules 20)",sample x2,1.14
same,"Ifit3 1449025_at (Group G1, Modules 20)",sample x2,1.76
same,"Irf7 1417244_a_at (Group G1, Modules 20)",sample x2,2.39
same,"Irgm1 1418825_at (Group G1, Modules 20)",sample x2,2.12
same,"Mndal 1426906_at (Group G1, Modules 20)",sample x2,1.42
same,"Pml 1448757_at (Group G1, Modules 20)",sample x2,1.53
same,"Pml 1456103_at (Group G1, Modules 20)",sample x2,1.62
same,"Rnf213 1455500_at (Group G1, Modules 20)",sample x2,1.03
same,"Rsad2 1436058_at (Group G1, Modules 20)",sample x2,1.77
same,"Shisa5 1423986_a_at (Group G1, Modules 20)",sample x2,2.32
same,"Shisa5 1437503_a_at (Group G1, Modules 20)",sample x2,2.43
same,"Stat1 1450033_a_at (Group G1, Modules 20)",sample x2,1.2
same,"Stat1 1450034_at (Group G1, Modules 20)",sample x2,1.92
same,"Tdrd7 1426716_at (Group G1, Modules 20)",sample x2,1.21
same,"Tor1aip2 1418115_s_at (Group G1, Modules 20)",sample x2,1.08
same,"Tor1aip2 1418116_at (Group G1, Modules 20)",sample x2,1.22
same,"Tor1aip2 1435526_at (Group G1, Modules 20)",sample x2,2.18
same,"Trim12a 1437432_a_at (Group G1, Modules 20)",sample x2,1.94
same,"Uba7 1426970_a_at (Group G1, Modules 20)",sample x2,2.42
same,"Adar 1425405_a_at (Group G1, Modules 20)",sample x3,0.96
same,"Adar 1434268_at (Group G1, Modules 20)",sample x3,1
same,"Ddx58 1436562_at (Group G1, Modules 20)",sample x3,1.6
same,"Ddx58 1456890_at (Group G1, Modules 20)",sample x3,0.95
same,"Eif2ak2 1422005_at (Group G1, Modules 20)",sample x3,1.09
same,"G3bp2 1421323_a_at (Group G1, Modules 20)",sample x3,1.04
same,"Gm9706///Isg15 1431591_s_at (Group G1, Modules 20)",sample x3,1.95
same,"H2-T10///H2-T22///H2-T9 1449875_s_at (Group G1, Modules 20)",sample x3,1.77
same,"Ifih1 1426276_at (Group G1, Modules 20)",sample x3,2.36
same,"Ifit1 1450783_at (Group G1, Modules 20)",sample x3,0.63
same,"Ifit3 1449025_at (Group G1, Modules 20)",sample x3,1.49
same,"Irf7 1417244_a_at (Group G1, Modules 20)",sample x3,2.37
same,"Irgm1 1418825_at (Group G1, Modules 20)",sample x3,2.02
same,"Mndal 1426906_at (Group G1, Modules 20)",sample x3,1.21
same,"Pml 1448757_at (Group G1, Modules 20)",sample x3,0.66
same,"Pml 1456103_at (Group G1, Modules 20)",sample x3,1.29
same,"Rnf213 1455500_at (Group G1, Modules 20)",sample x3,0.72
same,"Rsad2 1436058_at (Group G1, Modules 20)",sample x3,0.67
same,"Shisa5 1423986_a_at (Group G1, Modules 20)",sample x3,2.23
same,"Shisa5 1437503_a_at (Group G1, Modules 20)",sample x3,2.49
same,"Stat1 1450033_a_at (Group G1, Modules 20)",sample x3,1.05
same,"Stat1 1450034_at (Group G1, Modules 20)",sample x3,1.52
same,"Tdrd7 1426716_at (Group G1, Modules 20)",sample x3,0.94
same,"Tor1aip2 1418115_s_at (Group G1, Modules 20)",sample x3,0.54
same,"Tor1aip2 1418116_at (Group G1, Modules 20)",sample x3,0.89
same,"Tor1aip2 1435526_at (Group G1, Modules 20)",sample x3,1.22
same,"Trim12a 1437432_a_at (Group G1, Modules 20)",sample x3,1.68
same,"Uba7 1426970_a_at (Group G1, Modules 20)",sample x3,2.27

# Source: patent publication US20230021483A1, “[…] […] METHOD AND CLASSIFICATION OF PHARMACEUTICAL COMPONENTS BY USING TRANSCRIPTOMES” (National Institutes of Biomedical Innovation, Health and …, priority 2016, published 2023)
